In ChEMBL document CHEMBL1201862, “PubChem BioAssay data set” (2004):
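Exposure lasted 48 hours, with cells grown in 96-well plates and compounds tested at five concentrations. At the GI50, growth is halved.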 The source made the active and inactive calls. Cut-off read from the data, not from the text of the source: active = GI50 up to about 1.1 µM and inactive = higher.

Key:
Assay in all cases: NCI tumour cell line growth inhibition, 48 h
SR = system: SR
U-251 = system: U-251
PC-3 = system: PC-3
HCC 2998 = system: HCC 2998
UO-31 = system: UO-31
NCI-H522 = system: NCI-H522
SK-MEL-28 = system: SK-MEL-28
NCI/ADR-RES = system: NCI/ADR-RES
HOP-92 = system: HOP-92
SN12C = system: SN12C
SNB-19 = system: SNB-19
TK-10 = system: TK-10
K562 = system: K562
HOP-62 = system: HOP-62
NCI-H23 = system: NCI-H23
SK-OV-3 = system: SK-OV-3
MDA-N = system: MDA-N
T47D = system: T47D
CCRF-CEM = system: CCRF-CEM
SF-268 = system: SF-268

SMILES	GI50 (SR)	GI50 (U-251)	GI50 (PC-3)	GI50 (HCC 2998)	GI50 (UO-31)	GI50 (NCI-H522)	GI50 (SK-MEL-28)	GI50 (NCI/ADR-RES)	GI50 (HOP-92)	GI50 (SN12C)	GI50 (SNB-19)	GI50 (TK-10)	GI50 (K562)	GI50 (HOP-62)	GI50 (NCI-H23)	GI50 (SK-OV-3)	GI50 (MDA-N)	GI50 (T47D)	GI50 (CCRF-CEM)	GI50 (SF-268)
CCOC(=O)C(Cc1cn(C(C)=O)c2ccccc12)P(=O)(OCC)OCC (stereo not given)	> 100 µM (inactive)	> 100 µM (inactive)	60.8 µM (inactive)	> 100 µM (inactive)	> 100 µM (inactive)	> 100 µM (inactive)	> 100 µM (inactive)	> 100 µM (inactive)	> 100 µM (inactive)	> 100 µM (inactive)	> 100 µM (inactive)	> 100 µM (inactive)	> 100 µM (inactive)	> 100 µM (inactive)	> 100 µM (inactive)	> 100 µM (inactive)	> 100 µM (inactive)	> 100 µM (inactive)	–	–
O=C(O)c1cc2c(ncc3c(=O)n(-c4ccccc4)[nH]c32)s1	> 100 µM (inactive)	> 100 µM (inactive)	–	> 100 µM (inactive)	> 100 µM (inactive)	> 100 µM (inactive)	> 100 µM (inactive)	–	> 100 µM (inactive)	> 100 µM (inactive)	> 10 µM (inactive)	> 100 µM (inactive)	> 100 µM (inactive)	> 100 µM (inactive)	> 100 µM (inactive)	> 100 µM (inactive)	–	–	> 100 µM (inactive)	> 100 µM (inactive)
Clc1ccc(/N=c2\oc3ccccc3cc2-c2nc3ccccc3[nH]2)c(Cl)c1	> 100 µM (inactive)	–	> 100 µM (inactive)	–	> 100 µM (inactive)	78.5 µM (inactive)	–	> 100 µM (inactive)	43.6 µM (inactive)	–	> 100 µM (inactive)	23.8 µM (inactive)	> 100 µM (inactive)	24.3 µM (inactive)	78.5 µM (inactive)	49.9 µM (inactive)	83.6 µM (inactive)	> 100 µM (inactive)	> 100 µM (inactive)	24.2 µM (inactive)
O=C1CCc2cc3c(cc21)CC1(Cc2cc4c(cc2C1)CCCC4)C3	5.52 µM (inactive)	45.9 µM (inactive)	> 100 µM (inactive)	69.8 µM (inactive)	> 100 µM (inactive)	26 µM (inactive)	> 100 µM (inactive)	> 100 µM (inactive)	0.0489 µM (active)	> 100 µM (inactive)	45.1 µM (inactive)	> 100 µM (inactive)	23.6 µM (inactive)	83.2 µM (inactive)	> 100 µM (inactive)	79.4 µM (inactive)	4.82 µM (inactive)	32.1 µM (inactive)	72.3 µM (inactive)	> 100 µM (inactive)
